# Laboratory results reported in patent US6372770B1, “Benzoxazoles” (Euro-Celtique, S.A., priority 1994, dated 2002).
# Counter-ions that a name gives are not always drawn. Like-named read-outs stand apart in the source and are kept apart here.
# How the values were obtained:
# PDE IV [1] = tested on: T1, PDE IV; test: Type IV PDE inhibition, hydrolysis of [3H]-cyclic AMP; type: biochemical, bovine
# T1 construct: PDE IV IC50; other: Type IV PDE isolated from bovine tracheal smooth muscle; rolipram run in the
# Excerpt: The PDE IV inhibitory compounds of the present invention may be examined for their PDE IV inhibitory effects via the techniques set forth in the following examples, wherein the ability of the compounds to inhibit PDE IV isolated from bovine tracheal smooth muscle is set forth.
# The Type IV PDE is isolated from bovine tracheal smooth muscle using a procedure similar to that previously described by Silver, P. J. et al., Eur. J. Pharmacol. 150:85,1988.(1). Briefly, smooth muscle from bovine trachea is minced and homogenized using a polytron in 10 volumes of an extraction buffer containing 10 mM Tris-acetate (pH 7.5), 2 mM magnesium chloride, 1 mM dithiothreitol and 2,000 units/ml of aprotinin. This and all subsequent procedures are performed at 0-4° C. The homogenate is sonicated and then centrifuged at 48,000×g for 30 minutes. The resulting supernatant is applied to a DEAE Trisacryl M column previously equilibrated with sodium acetate and dithiothreitol. After applications of the sample, the column is washed with sodium acetate/dithiothreitol, after whlich the different forms of PDE are eluted from the column using a linear Tris-HCl/NaCl gradient. Fractions containing Type IV PDE are collected, dialyzed and concentrated to 14% of the original volume. The concentrated fractions are diluted to 50% with ethylene glycol and stored at −20° C.
# (§1) Enzyme activity is assessed by measuring the hydrolysis of [^3H]-cyclic AMP, as described by Thompson, W. J. et al., Adv. Cyclic Nucleotide Res. 10:69, 1979. The cyclic AMP concentration used in this assay is 0.2 μM, which approximates the Km value. Protein concentration is adjusted to ensure that no more than 15% of the available substrate is hydrolyzed during the incubation period.
# (§2) All test compounds are dissolved in dimethyl sulfoxide (final concentration of 2.5%). This concentration of dimethyl sulfoxide inhibits enzyme activity by approximately 10%.
# PDE IV [2] = details: cited from earlier work
# PDE III = target: T2, PDE III (Homo sapiens, UniProt Q14432); test: Type III PDE inhibition, hydrolysis of [3H]-cyclic AMP; type: biochemical; details: Type III PDE isolated from human platelets; 0.2 μM cyclic AMP
# T2 construct: Fractions containing PDE III activity are pooled and dialyzed overnight; from tissue; host or cells: human platelets
# T2 sequence (Q14432 whole entry): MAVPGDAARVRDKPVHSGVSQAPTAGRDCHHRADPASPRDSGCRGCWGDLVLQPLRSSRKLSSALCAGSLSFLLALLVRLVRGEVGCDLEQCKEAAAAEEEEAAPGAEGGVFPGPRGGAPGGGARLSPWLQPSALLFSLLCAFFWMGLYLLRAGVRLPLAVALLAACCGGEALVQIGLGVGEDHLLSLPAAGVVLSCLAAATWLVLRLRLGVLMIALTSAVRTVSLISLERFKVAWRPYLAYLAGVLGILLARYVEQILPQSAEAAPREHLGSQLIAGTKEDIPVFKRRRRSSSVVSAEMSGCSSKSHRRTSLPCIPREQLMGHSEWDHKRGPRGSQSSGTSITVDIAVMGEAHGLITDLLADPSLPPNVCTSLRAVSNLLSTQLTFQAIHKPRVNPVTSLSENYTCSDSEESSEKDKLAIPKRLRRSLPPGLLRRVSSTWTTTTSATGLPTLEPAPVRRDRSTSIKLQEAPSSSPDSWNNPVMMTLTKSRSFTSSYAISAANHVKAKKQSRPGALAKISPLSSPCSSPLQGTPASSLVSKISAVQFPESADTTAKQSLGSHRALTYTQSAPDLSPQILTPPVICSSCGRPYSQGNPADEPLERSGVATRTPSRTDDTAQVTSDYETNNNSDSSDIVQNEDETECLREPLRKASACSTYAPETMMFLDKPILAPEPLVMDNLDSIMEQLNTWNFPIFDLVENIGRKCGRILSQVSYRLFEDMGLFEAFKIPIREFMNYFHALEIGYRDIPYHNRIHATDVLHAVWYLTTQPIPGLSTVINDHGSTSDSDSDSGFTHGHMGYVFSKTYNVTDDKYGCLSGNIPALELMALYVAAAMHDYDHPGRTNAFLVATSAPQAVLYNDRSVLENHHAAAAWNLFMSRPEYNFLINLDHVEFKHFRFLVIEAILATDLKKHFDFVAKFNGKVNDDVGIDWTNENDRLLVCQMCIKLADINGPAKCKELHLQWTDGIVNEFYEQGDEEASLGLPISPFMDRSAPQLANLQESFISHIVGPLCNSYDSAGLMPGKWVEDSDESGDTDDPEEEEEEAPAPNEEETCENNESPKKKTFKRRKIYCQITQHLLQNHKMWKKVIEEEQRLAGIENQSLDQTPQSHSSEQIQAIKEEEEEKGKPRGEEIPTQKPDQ
# Procedure: The Type III PDE is isolated from human platelets using a procedure similar to that previously described by Washer, R. E. et al., Biochem. Pharmacol., 35:787, 1986. Briefly, 1-2 units of platelets are suspended in an equal volume of buffer (20 mM Tris-HCl, pH 7.5, containing 2 mM magnesium acetate, 1 mM dithiothreitol, and 5 mM Na2EDTA). The proteinase inhibitor phenylmethyl-sulfonyl fluoride (PMSF) is also included in this buffer at a final concentration of 200 μM. The suspension is homogenized using a polytron and the homogenate centrifuged at 100,000×g for 60 minutes. This and all subsequent procedures are performed at 0-4° C. The supernatant is then filtered through four layers of gauze and applied to a DEAE-Trisacryl M column, previously equilibrated with buffer B (20 mM Tris-HCl, pH 7.5, containing 1 mM magnesium acetate, 1 mM dithiothreitol and 200 μM PMSF). After application of the sample, the column is washed with several bed volumes of buffer B, after which the different forms of PDE are eluted from the column using two successive linear NaCl gradients (0.05-0.15 M, 300 ml total; 0.15-0.40 M, 200 ml total). Five ml fractions are collected and assayed for cyclic AMP and cyclic GMP PDE activity. Fractions containing PDE III activity are pooled and dialyzed overnight against 4 L of buffer B. The dialyzed PDE III is then concentrated to 10% of the original volume, diluted to 50% with ethylene glycol monoethyl ether and stored at −20° C. PDE III can typically be retained for up to four weeks with little or no loss of activity.
# as §1, with “approximates to” for “approximates”
# as §2
# [3] = Type IV PDE isolated from bovine tracheal smooth muscle, 0.2 μM cyclic AMP, read-out: PDE IV IC50
Structure (SMILES),melting point,IC50 (PDE IV [1]; [3]),IC50 (PDE III),further results
"COc1ccc(C2CNC(=O)C2)cc1OC1CCCC1 (centres unmarked) [Rolipram, reference compound]",,,,"IC50 (PDE IV [1]; read-out: concentration which yields 50% inhibition of PDE IV (IC50), value of the description, rolipram run in the same assay): 2.8 µM; IC50 (PDE IV [2]; historically considered value, read-out: PDE IV IC50, historical value): 3.5 µM"
"CC(=O)Oc1c(C(C)(C)C)cc(CCc2nc3cc(Cl)cc(CCc4ccccn4)c3o2)cc1C(C)(C)C [Example 58(b), 2-[2-(4-acetoxy-3,5-di-t-butyl-phenyl)ethyl]-5-chloro-7-[2-(2-pyridyl)ethyl]-benzoxazole]",134 to 135 °C,,,
"CC(=O)CCc1cc(Cl)cc2nc(-c3ccccc3Cl)oc12 [Example 9, 4-(5-Chloro-2-(2-chlorophenyl)benzoxazol-7-yl)butan-2-one]",109 to 110 °C,0.6 µM,> 300 µM,
"COc1ccc(Cc2nc3cccc(NC(=O)c4ccncc4)c3o2)cc1OC1CCCC1 [Example 16, 2-((3-Cyclopentyloxy-4-methoxy)benzyl)-7-(isonicotinoyl-amino)-benzoxazole Hydrochloride]",,6.03 µM,43.9 µM,
"Cc1cc(Cc2nc3c(O)cccc3o2)cc(C)c1O [Example 21, 2-((3,5-Dimethyl-4-hydroxy)benzyl)-4-hydroxybenzoxazole]",,24.5 µM,105 µM,
"COc1ccc(Cc2nc3cccc(NC(=O)OCc4ccccc4)c3o2)cc1OC1CCCC1 [Example 18, 7-((Benzyloxycarbonyl)amino)-2-((3-Cyclopentyloxy-4-methoxy)-benzyl)-benzoxazole]",,3.43 µM,> 300 µM,
Cn1c(=O)c2[nH]cnc2n(C)c1=O [theophylline],,,,"IC50 (PDE IV [2]; read-out: concentration giving 50% inhibition of PDE IV, stated in the description without a test): ~350 µM"
"COc1ccc(Cc2nc3cc(Cl)cc(Br)c3o2)cc1OC1CCCC1 [Example 4, 7-Bromo-5-chloro-2-(3-cyclopentyloxy-4-methoxybenzyl)-benzoxazole]",,25.1 µM,7.4 µM,
"COc1ccc(Cc2nc3cc(Cl)cc(CC=O)c3o2)cc1OC1CCCC1 [Example 25, 2-(3-Cyclopentyloxy-4-methoxybenzyl)-5-chlorobenzoxazole-7-ethanal]",66 to 68 °C,0.65 µM,118 µM,

# Now from value to compound, other results behind:
melting point,IC50 (PDE IV [1]; [3]),IC50 (PDE III),Structure (SMILES),further results
149 to 151 °C,,,"Clc1cc(C#Cc2nccs2)c2oc(Cc3ccccc3Cl)nc2c1 [Example 59(a), 5-chloro-2-(2-chlorobenzyl)-7-[2-(2-thiazolyl)ethynyl]-benzoxazole]",
181 to 183 °C,,,"NC(=O)CCc1cc(Cl)cc2nc(Cc3ccccc3Cl)oc12 [Example 55(a), 5-Chloro-2-(2-chlorobenzyl)-benzoxazole-7-propanamide]",
72 to 79 °C,,,"OCCCCCc1cc(Cl)cc2nc(Cc3ccccc3Cl)oc12 [Example 60(b), 5-chloro-2-(2-chlorobenzyl)-7-(5-hydroxypentyl)-benzoxazole]",
95 to 97 °C,,,"COc1ccc(Cc2nc3cccc(CCCO)c3o2)cc1OC [Example 61, 2-(3,4-dimethoxybenzyl)-7-(3-hydroxy-propyl)-benzoxazole]",
149 to 151 °C,0.37 µM,11.4 µM,"COc1ccc(Cc2nc3cc(Cl)cc(CC=NO)c3o2)cc1OC1CCCC1 [Example 26, 2-(3-Cyclopentyloxy-4-methoxybenzyl)-5-chlorobenzoxazole-7-ethanal Oxime]",
,21.5 µM,702 µM,"COC(=O)c1cccc2oc(Cc3cc(C(C)(C)C)c(O)c(C(C)(C)C)c3)nc12 [Example 46, 2-[4-Hydroxy-3,5-di-t-butyl-benzyl]-4-carbomethoxybenzoxazole]",
,15.8 µM,> 300 µM,"COc1ccc(CNc2cccc3nc(-c4cccc(Cl)c4)oc23)cc1OC1CCCC1 [Example 36, 2-(3-Chlorophenyl)-7-(3-cyclopentyloxy-4-methoxy-benzylamino)Benzoxazole]",
